From ChEMBL document CHEMBL3137667, “[Drug-induced liver injury; fourteenth updated edition of the bibliographic database of liver injuries and related drugs]” (Gastroenterol Clin Biol, 2004)

Columns and labels:
[1] = human, serum
[2] = Proposed mechanism(s) of liver damage. [column 'MEC' in source]; settings: human
[3] = Highest frequency of acute liver toxicity observed during clinical trials, expressed as a percentage. [column '% AIGUE' in source]; settings: human
[4] = human
[5] = human; remark: listed apart in the source
[6] = human; remark: listed apart in the source
[7] = human; remark: listed apart in the source
[8] = human; remark: listed apart in the source
[9] = human, serum; remark: listed apart in the source
[10] = human; remark: listed apart in the source
[11] = Highest frequency of moderate liver toxicity observed during clinical trials, expressed as a percentage. [column '% BIOL' in source]; settings: human
[12] = human, serum, 4383 h
[13] = human; remark: listed apart in the source
[14] = human; remark: listed apart in the source
[15] = human; remark: listed apart in the source
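Wherever Hepatotoxicity (association with vascular disease) is given: count of indexed literature references reporting vascular liver injury in humans, e.g. peliosis hepatitis, hepatic veno-occlusive disease or Budd-Chiari syndrome.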
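Wherever Hepatotoxicity (benign tumour) is given: value is a count of indexed literature references citing a benign tumour confirmed by histopathology.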
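Wherever Hepatotoxicity (choleostasis) is given: human cholestatic liver injury, shown by histopathology or by peak ALT or AST elevation over alkaline phosphatase ratio below 2, value counts indexed literature reports.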
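Wherever Hepatotoxicity (chronic liver disease) is given: chronic liver injury confirmed by histopathology or persistently raised serum aminotransferase activity beyond 6 months, value given as the count of indexed literature references.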
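Wherever Hepatotoxicity (cirrhosis) is given: value is a count of indexed literature references reporting cirrhosis confirmed by histopathology.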
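Wherever Hepatotoxicity (cytolytic) is given: human cytolytic liver injury, shown by histopathology or by a ratio above 5 of peak ALT or AST elevation to alkaline phosphatase elevation, value counts indexed references.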
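Wherever Hepatotoxicity (granulomatous hepatitis) is given: value is a count of indexed literature references reporting granulomatous liver disease confirmed by histopathology.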
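Wherever Hepatotoxicity (malignant tumour) is given: malignant tumour confirmed by histopathology, value gives the count of indexed literature references reporting it.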
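Wherever Hepatotoxicity (severe hepatitis) is given: human clinical data: severe hepatitis, meaning potentially life-threatening liver failure or clinically observed cases, the value counts how many indexed literature references report it.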
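Wherever Hepatotoxicity (steatosis) is given: steatosis confirmed by histopathology, value is the count of indexed references.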

| Compound | Hepatotoxicity (moderate) [1] | Hepatotoxicity (mechanism) [2] | Hepatotoxicity (acute) [3] [%] | Hepatotoxicity (cytolytic) [4] | Hepatotoxicity (association with vascular disease) [5] | Hepatotoxicity (severe hepatitis) [6] | Hepatotoxicity (steatosis) [7] | Hepatotoxicity (cirrhosis) [8] | Hepatotoxicity (acute) [9] | Hepatotoxicity (malignant tumour) [10] | Hepatotoxicity (moderate) [11] [%] | Hepatotoxicity (chronic liver disease) [12] | Hepatotoxicity (choleostasis) [13] | Hepatotoxicity (granulomatous hepatitis) [14] | Hepatotoxicity (benign tumour) [15] | also measured |
| --- | --- | --- | --- | --- | --- | --- | --- | --- | --- | --- | --- | --- | --- | --- | --- | --- |
| O=C(NO)c1ccc(O)c(O)c1 | 1 | Dose-dependant | 0 | 0 | 0 | 0 | 0 | 0 | 1 | 0 | 0 | 0 | 0 | 0 | 0 |  |
| COc1ccccc1Oc1c(NS(=O)(=O)c2ccc(C(C)(C)C)cc2)nc(-c2ncccn2)nc1OCCO [BOSENTAN] | 12 | Dose-dependant | 5.3 | 4 | 0 | 0 | 0 | 0 | 5 | 0 | 15 | 0 | 1 | 0 | 0 |  |
| CCCCNC(=N)NC(=N)N [BUFORMIN] | 0 |  |  |  | 0 |  | 0 | 0 | 1 | 0 |  | 0 |  |  | 0 | Hepatotoxicity (mechanism) ([2]; Liver): Allergic; Hepatotoxicity (acute) ([3]; Liver): 0%; Hepatotoxicity (cytolytic) ([4]; Liver): 0; Hepatotoxicity (severe hepatitis) ([6]; Liver): 0; Hepatotoxicity (moderate) ([11]; Liver): 0%; Hepatotoxicity (choleostasis) ([13]; Liver): 0; Hepatotoxicity (granulomatous hepatitis) ([14]; Liver): 0 |
| CC(C)(O/N=C(\C(=O)N[C@@H]1C(=O)N2C(C(=O)[O-])=C(C[n+]3ccccc3)CS[C@H]12)c1csc(N)n1)C(=O)O [CEFTAZIDIME] | 77 | Dose-dependant | 2.5 | 0 | 0 | 0 | 0 | 0 | 2 | 0 | 35.7 | 0 | 2 | 0 | 0 |  |
| COc1nc(C)ccc1CN1CC1C#N (stereo not given) [CIAMEXON] | 2 | Dose-dependant | 0 | 0 | 0 | 0 | 0 | 0 | 0 | 0 | 14 | 0 | 0 | 0 | 0 |  |
| CCN(CC)CC[n+]1ccc2c(C)c3[nH]c4ccc(O)cc4c3c(C)c2c1.[Cl-] [DATELLIPTIUM CHLORIDE] | 2 | Dose-dependant | 7.1 | 2 | 0 | 0 | 0 | 0 | 2 | 0 | 66.7 | 0 | 0 | 0 | 0 |  |
| O=C[C@H](O)[C@@H](O)[C@H](O)[C@H](O)CO[C@H]1O[C@H](CO[C@H]2O[C@H](CO)[C@@H](O)[C@H](O)[C@H]2O)[C@@H](O)[C@H](O)[C@H]1O [DEXTRAN] | 2 | Dose-dependant | 0 | 0 | 0 | 0 | 0 | 0 | 0 | 0 | 43.7 | 0 | 0 | 0 | 0 |  |
| CO[C@@H]1[C@@H](N)[C@@H](O[C@H]2[C@H](Oc3cccc4c(O)c5c(=O)oc6ccc(C)c7c(=O)oc(c34)c5c67)O[C@H](C)[C@H](O)[C@]2(C)O)O[C@H](C)[C@@H]1O [ELSAMITRUCIN] | 4 | Dose-dependant | 1.6 | 0 | 0 | 1 | 0 | 0 | 2 | 0 | 13 | 0 | 0 | 0 | 0 |  |
| C[C@@](O)(/C=C/[C@H]1CC=CC(=O)O1)[C@@H](C[C@@H](O)\C=C/C=C\C=C\CO)OP(=O)(O)O [FOSTRIECIN] | 1 | Dose-dependant | 0 | 0 | 0 | 0 | 0 | 0 | 0 | 0 | 5 | 0 | 0 | 0 | 0 |  |
| CCCCCCCCCCCCCCCCSCC(COC)COP(=O)([O-])OCC[N+](C)(C)C (stereo not given) [ILMOFOSINE] | 5 | Dose-dependant | 0 | 0 | 0 | 0 | 0 | 0 | 0 | 0 | 71.4 | 0 | 0 | 0 | 0 |  |
| Cc1cnc(NC(=O)C2=C(O)c3ccccc3S(=O)(=O)N2C)s1 [MELOXICAM] | 6 | Dose-dependant |  | 0 | 0 |  | 0 | 0 | 1 | 0 |  | 0 | 0 | 0 | 0 | Hepatotoxicity (acute) ([3]; Liver): 0%; Hepatotoxicity (severe hepatitis) ([6]; Liver): 0; Hepatotoxicity (moderate) ([11]; Liver): 11.5% |
| C=CCC1(C(C)C#CCC)C(=O)N=C(O)N(C)C1=O (stereo not given) [METHOHEXITAL] | 1 | Dose-dependant | 0 | 0 | 0 | 0 | 0 | 0 | 0 | 0 | 0 | 0 | 0 | 0 | 0 |  |
| CCC1(CC)C(=O)NCC(C)C1=O (stereo not given) [METHYPRYLON] | 1 | Dose-dependant | 0 | 1 | 0 | 0 | 0 | 0 | 1 | 0 | 0 | 0 | 1 | 0 | 0 |  |
| O=C1CN(/N=C/c2ccc([N+](=O)[O-])o2)C(=O)N1CO [NIFURTOINOL] | 0 | Allergic | 0 | 0 | 0 | 0 | 0 | 0 | 0 | 0 | 0 | 2 | 0 | 0 | 0 |  |
